How the values were obtained:
[1] = tested on: K562 cells; experiment: Apoptosis by morphological analysis of Wright Giemsa-stained cytospin preparations; assay type: cell-based, human; conditions: K562; for effect of caspase inhibitor on Compound I/SAHA-induced apoptosis: Compound I + SAHA with 25 μM inhibitor
Protocol: (§1) Experimental Format: Logarithmically growing cells are placed in sterile plastic T-flasks (Corning, Corning, N.Y.) to which are added the designated drugs and the flasks replaced in the incubator for intervals. At the end of the incubation period, cells are transferred to sterile centrifuge tubes, pelleted by centrifugation at 400×g for 10 min at room temperature, and prepared for analysis as described below.
(§2) Assessment of Apoptosis: After drug exposures, cytocentrifuge preparations are stained with Wright-Giemsa and viewed by light microscopy to evaluate the extent of apoptosis (i.e., cell shrinkage, nuclear condensation, formation of apoptotic bodies, etc.) as described previously (Yu et al., Nat. Rev. Cancer 1:294-202). For these studies, the percentage of apoptotic cells is determined by evaluating ≧500 cells/condition in triplicate. To confirm the results of morphological analysis, Annexin V/PI staining is used. Annexin V/PI (BD PharMingen, San Diego, Calif.) analysis of cell death is carried out as per the manufacturer's instructions. In studies involving TNF and TNF soluble receptor, both compound are combined and maintained at room temperature 20 min prior to use. For these experiments 1-2×10^5 cells per condition are harvested. Analysis is carried out using a Becton-Dickinson FACScan cytofluorometer (Mansfield, Mass.). To further confirm the morphology results, TUNEL staining is used. For TUNEL staining, cytocentrifuge preparations are obtained and fixed with 4% formaldehyde. The slides are treated with acetic acid/ethanol (1:2), stained with terminal transferase reaction mixture containing 1× terminal transferase reaction buffer (0.25 units/μl terminal transferase, 2.5 mM CoCl2, and 2 pmol fluorescein-12-dUTM; Boehringer Mannheim, Indianapolis, Ind.), and visualized using fluorescence microscopy.

[2] = tested on: LAMA 84 cells; experiment: Apoptosis by cytospin slides; assay type: cell-based, human; conditions: Table 6; LAMA 84; 24 hr; sodium butyrate (SB; 1 or 2 mM); Compound I concentration not given
Protocol: as §1, §2

Row | Compound | effect of caspase inhibitor on Compound I/SAHA-induced apoptosis [1] | Compound I + SB % of apoptotic cells ([1]; Table 6, 24 hr, sodium butyrate (SB; 1 or 2 mM), Compound I concentration not given) | Compound I + SB % of apoptotic cells [2]
1 | COC(=O)CC(NC(=O)OC(C)(C)C)C(=O)CF (stereo not shown) [BOC-fmk] | markedly inhibited apoptosis | – | –
2 | CCCC(=O)[O-].[Na+] [SB, sodium butyrate] | – | 5.1 ± 2.2% | 6.4 ± 2.8%
3 | IETD-fmk | minimally effective | – | –

Reference: patent publication US20060100140A1, “Combination of a) n-{5-[4-(4-methyl-piperazino-methyl)-benzoylamido]2-methylphenyl}-4- (3-pyridyl)-2-pyrimidine-amine and b) a histone deacetylase inhibitor for the treatment of leukemia” (priority 2002, published 2006)
